Experimental findings from patent US20240115557A1, “INHIBITORS OF RNA-GUIDED NUCLEASES AND USES THEREOF” (The Brigham and Women's Hospital, Inc., priority 2022, published 2024) are described below.

Each structure is given as a SMILES string.

The assay has as its target T1, SaCas9 (Staphylococcus aureus, UniProt J7RUA5).
T1 sequence (J7RUA5 1-1053): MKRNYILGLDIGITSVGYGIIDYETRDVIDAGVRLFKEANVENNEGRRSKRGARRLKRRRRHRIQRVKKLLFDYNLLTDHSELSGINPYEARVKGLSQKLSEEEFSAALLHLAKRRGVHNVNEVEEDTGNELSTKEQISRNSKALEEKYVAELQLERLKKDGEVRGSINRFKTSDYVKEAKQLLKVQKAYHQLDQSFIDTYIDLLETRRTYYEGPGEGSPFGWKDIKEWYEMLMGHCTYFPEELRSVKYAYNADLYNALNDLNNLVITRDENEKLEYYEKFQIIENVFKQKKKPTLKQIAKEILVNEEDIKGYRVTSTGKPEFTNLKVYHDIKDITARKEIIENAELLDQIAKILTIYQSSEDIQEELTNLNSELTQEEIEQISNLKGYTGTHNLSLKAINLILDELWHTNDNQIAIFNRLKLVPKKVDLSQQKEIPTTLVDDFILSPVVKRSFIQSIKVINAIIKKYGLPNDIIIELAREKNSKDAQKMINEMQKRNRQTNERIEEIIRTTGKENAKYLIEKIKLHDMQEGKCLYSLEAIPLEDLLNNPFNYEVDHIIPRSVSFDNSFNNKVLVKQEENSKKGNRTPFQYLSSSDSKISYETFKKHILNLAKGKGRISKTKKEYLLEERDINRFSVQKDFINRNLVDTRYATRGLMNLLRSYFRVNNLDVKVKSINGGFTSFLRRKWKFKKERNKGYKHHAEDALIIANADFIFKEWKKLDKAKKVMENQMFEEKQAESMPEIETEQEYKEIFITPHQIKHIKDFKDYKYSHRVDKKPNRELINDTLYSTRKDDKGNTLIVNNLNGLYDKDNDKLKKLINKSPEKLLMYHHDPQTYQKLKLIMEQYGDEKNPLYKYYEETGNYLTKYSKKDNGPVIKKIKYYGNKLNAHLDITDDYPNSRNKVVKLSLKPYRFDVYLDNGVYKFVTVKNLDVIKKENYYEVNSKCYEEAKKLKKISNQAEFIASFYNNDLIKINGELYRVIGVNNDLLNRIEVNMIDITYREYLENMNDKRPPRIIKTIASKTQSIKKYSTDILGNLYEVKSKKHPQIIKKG
In words: Strand displacement assay, SaCas9 primary screen. It is filed as biochemical. The note with it: for Auto Zscore Rep 1 / Auto Zscore Rep 2 / Normalized Zscore Rep 1 / Normalized Zscore Rep 2: SaCas9 primary screen; for Auto Zscore Rep 1 / Normalized Zscore Rep 1: replicate 1; for Auto Zscore Rep 2 / Normalized Zscore Rep 2: replicate 2; for Normalized Zscore Rep 1 / Normalized Zscore Rep 2: weaker potential hits; for 3 sigma Hit: flag 1 = hit at 3 sigma; for 5 sigma Hit: flag 1 = hit at 5 sigma. The essentials: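 Cas9 RNP (1:1.2 protein:gRNA) pre-formed in 20 mM Tris-HCl pH 7.5, 100 mM KCl, 5 mM MgCl2, used at 10 nM (2× stock) with Alexa-Fluor 647 substrate/quencher at 1 nM/5 nM (2× stock). Reaction ran 2.5 h at 37°C; strand displacement read as fluorescence. Hits called by Z-score: 3–5σ weak, >5σ strong.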

`c1ccc(Cc2nn3c(-c4cccnc4)nnc3s2)cc1` [Compound D727-0066]: the “Auto Zscore Rep 1” value is listed as 0.2456, the “Auto Zscore Rep 2” value is 1.309, the “Normalized Zscore Rep 1” value was found to be 0.1917 and the “Normalized Zscore Rep 2” value came to 0.2236. The “3 sigma Hit” value is 1 and the “5 sigma Hit” value stood at 1.

`Cc1nc2ccccc2n1Cc1nnc2n1N=C(N)CS2` [Compound D727-0339]: the “Auto Zscore Rep 1” value is listed as −1.123, the “Auto Zscore Rep 2” value is −1.939, the “Normalized Zscore Rep 1” value was 0.1478 and the “Normalized Zscore Rep 2” value is 0.2051. Moreover, the “3 sigma Hit” value stood at 1.

As to `Cc1ccccc1OCc1nn2c(C(C)C)nnc2s1` [Compound D727-0350], the “Auto Zscore Rep 1” value is reported as −0.2032, the “Auto Zscore Rep 2” value was found to be 0.9814, the “Normalized Zscore Rep 1” value is recorded as 0.2025 and the “Normalized Zscore Rep 2” value worked out at 0.2065. Further, the “3 sigma Hit” value is given as 1 and the “5 sigma Hit” value was determined as 1.

Take `Cc1ccccc1OCc1nn2c(C(C)(C)C)nnc2s1` [Compound D727-0351]: the “Auto Zscore Rep 1” value is −0.02144, the “Auto Zscore Rep 2” value is −0.3042, the “Normalized Zscore Rep 1” value was found to be 0.2896 and the “Normalized Zscore Rep 2” value is given as 0.3227. The “3 sigma Hit” value was 1 and the “5 sigma Hit” value is given as 1.

`Brc1ccc(OCc2nn3c(-c4ccccn4)nnc3s2)cc1` [Compound D727-0522]: the “Auto Zscore Rep 1” value turned out to be 1.021, the “Auto Zscore Rep 2” value is 0.5297, the “Normalized Zscore Rep 1” value is given as 0.3471 and the “Normalized Zscore Rep 2” value is 0.3776. Moreover, the “3 sigma Hit” value amounted to 1 and the “5 sigma Hit” value was found to be 1.

As to `Fc1ccc(OCc2nn3c(-c4ccccn4)nnc3s2)cc1` [Compound D727-0525], the “Auto Zscore Rep 1” value is 0.9393, the “Auto Zscore Rep 2” value stood at 1.066, the “Normalized Zscore Rep 1” value was 0.3566 and the “Normalized Zscore Rep 2” value is listed as 0.3426. In addition, the “3 sigma Hit” value amounted to 1 and the “5 sigma Hit” value was found to be 1.

Consider `NC(=O)c1c(NC(=O)COCc2cc(-c3ccc4c(c3)OCO4)on2)sc2c1CCCC2` [Compound E613-0091], for which the “Auto Zscore Rep 1” value is −0.4678, the “Auto Zscore Rep 2” value is −1.998, the “Normalized Zscore Rep 1” value was determined as 0.1515 and the “Normalized Zscore Rep 2” value was found to be 0.3604. Further, the “3 sigma Hit” value is recorded as 1.

With `NS(=O)(=O)c1ccc(CCNC(=O)C2=Cc3sc4c(c3CS2)CCCC4)cc1` [Compound E722-2588], the “Auto Zscore Rep 1” value is recorded as 0.2247, the “Auto Zscore Rep 2” value is reported as −0.3407, the “Normalized Zscore Rep 1” value is recorded as 0.2746 and the “Normalized Zscore Rep 2” value is 0.2871. The “3 sigma Hit” value is recorded as 1 and the “5 sigma Hit” value was determined as 1.

In the case of `NC(=O)c1sc(=S)n2c1[nH]c(=O)c1ccc(Cl)cc12` [Compound F083-0067], the “Auto Zscore Rep 1” value is recorded as −0.5214, the “Auto Zscore Rep 2” value is 0.84, the “Normalized Zscore Rep 1” value is recorded as 0.2245 and the “Normalized Zscore Rep 2” value was found to be 0.2068. The “3 sigma Hit” value worked out at 1 and the “5 sigma Hit” value is 1.

As to `CCCN1CCN(c2ccc(C(=O)O)cc2NC(=O)c2ccccc2Cl)CC1` [Compound F086-0004], the “Auto Zscore Rep 1” value is recorded as −1.483, the “Auto Zscore Rep 2” value is 1.076, the “Normalized Zscore Rep 1” value is on record as 0.2725 and the “Normalized Zscore Rep 2” value is 0.2108. The “3 sigma Hit” value is recorded as 1 and the “5 sigma Hit” value amounted to 1.

For the molecule `CC(C)NC(=O)CN1CCN(c2ccc(C(=O)O)cc2NC(=O)c2ccccc2Cl)CC1` [Compound F086-0028], the “Auto Zscore Rep 1” value is recorded as −0.07719, the “Auto Zscore Rep 2” value stood at 0.5847, the “Normalized Zscore Rep 1” value is listed as 0.2467 and the “Normalized Zscore Rep 2” value was found to be 0.2295. For the same molecule, the “3 sigma Hit” value is 1 and the “5 sigma Hit” value was 1.

As for `COCCCNC(=O)CN1CCN(c2ccc(C(=O)O)cc2NC(=O)c2ccccc2Cl)CC1` [Compound F086-0033], the “Auto Zscore Rep 1” value is listed as −0.0657, the “Auto Zscore Rep 2” value was −0.1907, the “Normalized Zscore Rep 1” value is reported as 0.1937 and the “Normalized Zscore Rep 2” value was 0.2246. Also, the “3 sigma Hit” value was found to be 1 and the “5 sigma Hit” value amounted to 1.

`O=C(O)c1ccc(N2CCN(c3ccccn3)CC2)c(NC(=O)c2ccc(Br)cc2)c1` [Compound F086-0619]: the “Auto Zscore Rep 1” value is listed as 1.213, the “Auto Zscore Rep 2” value turned out to be 0.1224, the “Normalized Zscore Rep 1” value turned out to be 0.2335 and the “Normalized Zscore Rep 2” value was 0.1451. The “3 sigma Hit” value is listed as 1 and the “5 sigma Hit” value was 1.

On to `Nc1c(C(=O)N2CCCC2)sc(=S)n1Cc1ccccc1` [Compound F128-0041], for which the “Auto Zscore Rep 1” value came out at 1.188, the “Auto Zscore Rep 2” value was −1.115, the “Normalized Zscore Rep 1” value was 0.3576 and the “Normalized Zscore Rep 2” value was found to be 0.3845. In addition, the “3 sigma Hit” value was 1 and the “5 sigma Hit” value was determined as 1.

Take `Nc1c(C(=O)N2CCCCC2)sc(=S)n1Cc1ccccc1` [Compound F128-0042]: the “Auto Zscore Rep 1” value is on record as −0.3436, the “Auto Zscore Rep 2” value amounted to 0.3038, the “Normalized Zscore Rep 1” value is 0.2801 and the “Normalized Zscore Rep 2” value is listed as 0.2612. In addition, the “3 sigma Hit” value is listed as 1 and the “5 sigma Hit” value turned out to be 1.

Turning to `Nc1c(C(=O)NCC2CCCO2)sc(=S)n1-c1ccc(Cl)cc1` (centres unmarked) [Compound F128-0076], the “Auto Zscore Rep 1” value was −0.6285, the “Auto Zscore Rep 2” value is recorded as −1.451, the “Normalized Zscore Rep 1” value is given as 0.3168 and the “Normalized Zscore Rep 2” value was 0.2064. Also, the “3 sigma Hit” value is on record as 1 and the “5 sigma Hit” value stood at 1.

Consider `CS(=O)(=O)Nc1cnc(N2CCC(C(N)=O)(N3CCCCC3)CC2)c(C(=O)O)c1` [Compound F293-0183], for which the “Auto Zscore Rep 1” value came out at 1.533, the “Auto Zscore Rep 2” value was −0.4148, the “Normalized Zscore Rep 1” value was 0.2879 and the “Normalized Zscore Rep 2” value is reported as 0.3283. For the same molecule, the “3 sigma Hit” value came to 1 and the “5 sigma Hit” value worked out at 1.

With `O=C(O)c1cc(NS(=O)(=O)c2cc(F)ccc2F)cnc1N1CCC(N2CCCCC2)CC1` [Compound F293-0616], the “Auto Zscore Rep 1” value is −0.1879, the “Auto Zscore Rep 2” value is on record as −0.1846, the “Normalized Zscore Rep 1” value was 0.1887 and the “Normalized Zscore Rep 2” value amounted to 0.1788. Moreover, the “3 sigma Hit” value was 1.

On to `CS(=O)(=O)Nc1cnc(N2CCC(CCN3CCOCC3)CC2)c(C(=O)O)c1` [Compound F293-0898], for which the “Auto Zscore Rep 1” value amounted to 0.3628, the “Auto Zscore Rep 2” value was found to be 0.2374, the “Normalized Zscore Rep 1” value was found to be 0.3858 and the “Normalized Zscore Rep 2” value came to 0.277. Also, the “3 sigma Hit” value worked out at 1 and the “5 sigma Hit” value is 1.

On to `CN(C)S(=O)(=O)Nc1cnc(N2CCC(CCN3CCCCC3)CC2)c(C(=O)O)c1` [Compound F293-0962], for which the “Auto Zscore Rep 1” value is −1.575, the “Auto Zscore Rep 2” value is on record as −1.36, the “Normalized Zscore Rep 1” value is 0.2533 and the “Normalized Zscore Rep 2” value is on record as 0.277. In addition, the “3 sigma Hit” value is 1 and the “5 sigma Hit” value is given as 1.

Regarding `CCN(Cc1ccccc1)c1ccc(NS(=O)(=O)c2ccc(OC)cc2)cc1C(=O)O` [Compound F294-0003], the “Auto Zscore Rep 1” value came out at 0.9297, the “Auto Zscore Rep 2” value is −1.427, the “Normalized Zscore Rep 1” value was found to be 0.2547 and the “Normalized Zscore Rep 2” value is given as 0.2729. Also, the “3 sigma Hit” value was 1 and the “5 sigma Hit” value worked out at 1.

Regarding `CN(C)S(=O)(=O)Nc1ccc(N2CCC(C(N)=O)(N3CCCCC3)CC2)c(C(=O)O)c1` [Compound F294-0183], the “Auto Zscore Rep 1” value is given as −1.66, the “Auto Zscore Rep 2” value is on record as −0.5827, the “Normalized Zscore Rep 1” value is 0.1624 and the “Normalized Zscore Rep 2” value is recorded as 0.2442. Further, the “3 sigma Hit” value stood at 1.
